According to patent US20160251332A1, “Herbicidal Compounds” (SYNGENTA PARTICIPATIONS AG, priority 2013, published 2016):

What was measured:
Format in all cases: in vivo
[1] = system: Alopecurus myosuroides; experiment: Pre-emergence herbicidal activity, ALOMY; settings: Application pre-emergence, 1000 g/Ha, evaluated after 13 days, scale 0-5
Protocol: (§1) Seeds of a variety of test species were sown in standard soil in pots. After cultivation for one day (pre-emergence) under controlled conditions in a glasshouse (at 24/16° C., day/night; 14 hours light; 65% humidity), the plants were sprayed with an aqueous spray solution derived from the formulation of the technical active ingredient in acetone/water (50:50) solution containing 0.5% Tween 20 (polyoxyethelyene sorbitan monolaurate, CAS RN 9005-64-5). The test plants were then grown in a glasshouse under controlled conditions (at 24/16° C., day/night; 14 hours light; 65% humidity) and watered twice daily. After 13 days, the test was evaluated (5=total damage to plant; 0=no damage to plant).

[2] = system: Setaria faberi; experiment: Post-emergence herbicidal activity, SETFA; settings: Application post-emergence, 1000 g/Ha, evaluated after 13 days, scale 0-5
Protocol: (§2) Seeds of a variety of test species were sown in standard soil in pots. After 8 days cultivation (post-emergence) under controlled conditions in a glasshouse (at 24/16° C., day/night; 14 hours light; 65% humidity), the plants were sprayed with an aqueous spray solution derived from the formulation of the technical active ingredient in acetone/water (50:50) solution containing 0.5% Tween 20 (polyoxyethelyene sorbitan monolaurate, CAS RN 9005-64-5). The test plants were then grown in a glasshouse under controlled conditions (at 24/16° C., day/night; 14 hours light; 65% humidity) and watered twice daily. After 13 days, the test was evaluated (5=total damage to plant; 0=no damage to plant).

[3] = system: Echinochloa crus-galli; experiment: Pre-emergence herbicidal activity, ECHCG; settings: Application pre-emergence, 1000 g/Ha, evaluated after 13 days, scale 0-5
Protocol: as §1

[4] = system: Setaria faberi; experiment: Pre-emergence herbicidal activity, SETFA; settings: Application pre-emergence, 1000 g/Ha, evaluated after 13 days, scale 0-5
Protocol: as §1

[5] = system: Echinochloa crus-galli; experiment: Post-emergence herbicidal activity, ECHCG; settings: Application post-emergence, 1000 g/Ha, evaluated after 13 days, scale 0-5
Protocol: as §2

[6] = system: Amaranthus retroflexus; experiment: Post-emergence herbicidal activity, AMARE; settings: Application post-emergence, 1000 g/Ha, evaluated after 13 days, scale 0-5
Protocol: as §2

[7] = system: Zea mays; experiment: Post-emergence herbicidal activity, ZEAMX; settings: Application post-emergence, 1000 g/Ha, evaluated after 13 days, scale 0-5
Protocol: as §2

[8] = system: Abutilon theophrasti; experiment: Post-emergence herbicidal activity, ABUTH; settings: Application post-emergence, 1000 g/Ha, evaluated after 13 days, scale 0-5
Protocol: as §2

[9] = system: Alopecurus myosuroides; experiment: Post-emergence herbicidal activity, ALOMY; settings: Application post-emergence, 1000 g/Ha, evaluated after 13 days, scale 0-5
Protocol: as §2

[10] = system: Zea mays; experiment: Pre-emergence herbicidal activity, ZEAMX; settings: Application pre-emergence, 1000 g/Ha, evaluated after 13 days, scale 0-5
Protocol: as §1

[11] = system: Abutilon theophrasti; experiment: Pre-emergence herbicidal activity, ABUTH; settings: Application pre-emergence, 1000 g/Ha, evaluated after 13 days, scale 0-5
Protocol: as §1

[12] = system: Amaranthus retroflexus; experiment: Pre-emergence herbicidal activity, AMARE; settings: Application pre-emergence, 1000 g/Ha, evaluated after 13 days, scale 0-5
Protocol: as §1

| SMILES | ALOMY damage score [1] | SETFA damage score [2] | ECHCG damage score [3] | SETFA damage score [4] | ECHCG damage score [5] | AMARE damage score [6] | ZEAMX damage score [7] | ABUTH damage score [8] | ALOMY damage score [9] | ZEAMX damage score [10] | ABUTH damage score [11] | AMARE damage score [12] |
| --- | --- | --- | --- | --- | --- | --- | --- | --- | --- | --- | --- | --- |
| CN1CC(O)N(c2cc(C(F)(F)F)c(-c3ccc(F)cc3)cn2)C1=O (centres unmarked) [Compound A2] | 4 | 5 | 5 | 5 | 5 | 5 | 4 | 5 | 5 | 5 | 4 | 5 |
| CN1CC(O)N(c2cc(C(F)(F)F)c(-c3cccc([S+](C)[O-])c3)cn2)C1=O (centres unmarked) [Compound A11] | 1 | 3 | 1 | 1 | 3 | 5 | 2 | 5 | 2 | 0 | 2 | 2 |
| COCc1cccc(-c2cnc(N3C(=O)N(C)CC3O)cc2C(F)(F)F)c1 (centres unmarked) [Compound A13] | 2 | 4 | 2 | 2 | 4 | 5 | 2 | 5 | 3 | 1 | 2 | 3 |
| CN1CC(O)N(c2cc(C(C)(C)F)ccn2)C1=O (centres unmarked) [Compound A38] | 4 | 5 | 4 | 4 | 5 | 5 | 4 | 5 | 5 | 0 | 5 | 5 |
| CN1CC(O)N(c2cc(C(F)(F)F)c(-c3cccc(C#N)c3)cn2)C1=O (centres unmarked) [Compound A17] | 4 | 5 | 5 | 4 | 5 | 5 | – | 5 | 5 | 2 | 5 | 5 |
| CN1CC(O)N(c2cc(C(F)(F)F)c(-c3ccc(C#N)s3)cn2)C1=O (centres unmarked) [Compound A14] | 2 | 5 | 3 | 2 | 5 | 5 | 3 | 5 | 4 | 2 | 3 | 5 |
| CN1CC(O)N(c2cc(C(F)(F)F)c(-c3cccc(NS(C)(=O)=O)c3)cn2)C1=O (centres unmarked) [Compound A8] | 1 | 1 | 1 | 3 | 1 | 5 | 1 | 4 | 1 | 2 | 2 | 2 |
| CN1CC(O)N(c2cc(C(F)(F)F)c(-c3ccsc3)cn2)C1=O (centres unmarked) [Compound A4, 4-hydroxy-1-methyl-3-[5-(3-thienyl)-4-(trifluoromethyl)-2-pyridyl]imidazolidin-2-one] | 3 | 5 | 4 | 3 | 5 | 5 | 0 | 5 | 4 | 2 | 2 | 5 |
| COc1cnc(N2C(=O)N(C)CC2O)cc1C(F)(F)F (centres unmarked) [Compound A39] | 4 | 5 | 4 | 4 | 5 | 5 | 4 | 5 | 5 | 2 | 5 | 5 |
| CN1CC(O)N(c2cc(C(F)(F)F)c(Cl)cn2)C1=O (centres unmarked) [Compound A36] | 4 | 5 | 5 | 4 | 5 | 5 | 5 | 5 | 5 | 2 | 5 | 5 |
| Cc1cnc(N2C(=O)N(C)CC2O)cc1C(F)(F)F (centres unmarked) [Compound A40] | 4 | 5 | 5 | 4 | 5 | 5 | 4 | 5 | 5 | 4 | 5 | 5 |
| CN1CC(O)N(c2cc(C(F)(F)F)c(-c3cccc(S(=O)(=O)N(C)C)c3)cn2)C1=O (centres unmarked) [Compound A10] | 4 | 5 | 5 | 4 | 5 | 5 | 4 | 5 | 5 | 3 | 5 | 5 |
| CN1CC(O)N(c2cc(C(F)(F)F)ccn2)C1=O (centres unmarked) [Compound A1, 4-hydroxy-1-methyl-3-[4-(trifluoromethyl)-2-pyridyl]imidazolidin-2-one] | 4 | 5 | 5 | 4 | 5 | 5 | 5 | 5 | 5 | 3 | 5 | 5 |
| CN1CC(O)N(c2cc(C(C)(F)F)ccn2)C1=O (centres unmarked) [Compound A37] | 4 | 5 | 3 | 1 | 4 | 5 | 4 | 5 | 5 | 2 | 5 | 5 |
| COc1ccc(-c2cnc(N3C(=O)N(C)CC3O)cc2C(F)(F)F)c(OC)c1 (centres unmarked) [Compound A15] | 1 | 3 | 1 | 2 | 4 | 5 | 1 | 5 | 3 | 0 | 3 | 2 |
| CN1CC(O)N(c2cc(C(F)(F)F)c(-c3cnc(C#N)nc3)cn2)C1=O (centres unmarked) [Compound A27] | – | 3 | 3 | 2 | 5 | 5 | 3 | 5 | – | 1 | 5 | 5 |
| Cc1ccc(-c2cnc(N3C(=O)N(C)CC3O)cc2C(F)(F)F)cn1 (centres unmarked) [Compound A20] | – | 5 | 5 | 5 | 5 | 5 | 4 | 5 | – | 3 | 5 | 5 |
| CN1CC(O)N(c2cc(C(F)F)ccn2)C1=O (centres unmarked) [Compound A44] | – | 5 | 4 | 5 | 5 | 5 | 4 | 5 | – | 2 | 5 | 5 |
